Here are results for 1 compound from ChEMBL document CHEMBL4184197 (Bioorg Med Chem, 2018).

The target in data set [1] is Substance-P receptor (Homo sapiens) (UniProt P25103). Put plainly: Binding affinity to human NK1 receptor at 10 uM after 30 mins by scintillation counting analysis relative to control.
Data set [2] addresses M-phase inducer phosphatase 1 (Homo sapiens) (UniProt P30304). The data set can be described thus: Binding affinity to recombinant human phosphatase CDC25A at 10 uM after 20 mins by fluorescence assay relative to control.
In data set [3] the target is cGMP-specific 3',5'-cyclic phosphodiesterase (Homo sapiens) (UniProt O76074). Put plainly: Binding affinity to human PDE5 at 10 uM after 60 mins by scintillation counting analysis relative to control.
Data set [4] deals with CHO-K1. Put plainly: Genotoxicity in CHOK1 cells in absence of rat liver S9 fraction by fluorescence imaging based micronucleus assay. The class given is toxicity, cell-based, Cricetulus griseus. Particulars: chinese hamster.
Data set [5] addresses Glucocorticoid receptor (Homo sapiens) (UniProt P04150). Put plainly: Binding affinity to human GR at 10 uM after 360 mins by scintillation counting analysis relative to control.
For data set [6], the target named is Muscarinic acetylcholine receptor M1 (Homo sapiens) (UniProt P11229). Put plainly: Binding affinity to recombinant human muscarinic M1 receptor at 10 uM after 60 mins by scintillation counting analysis relative to control.
Muscarinic acetylcholine receptor M1 (Homo sapiens), sequence (P11229 whole entry): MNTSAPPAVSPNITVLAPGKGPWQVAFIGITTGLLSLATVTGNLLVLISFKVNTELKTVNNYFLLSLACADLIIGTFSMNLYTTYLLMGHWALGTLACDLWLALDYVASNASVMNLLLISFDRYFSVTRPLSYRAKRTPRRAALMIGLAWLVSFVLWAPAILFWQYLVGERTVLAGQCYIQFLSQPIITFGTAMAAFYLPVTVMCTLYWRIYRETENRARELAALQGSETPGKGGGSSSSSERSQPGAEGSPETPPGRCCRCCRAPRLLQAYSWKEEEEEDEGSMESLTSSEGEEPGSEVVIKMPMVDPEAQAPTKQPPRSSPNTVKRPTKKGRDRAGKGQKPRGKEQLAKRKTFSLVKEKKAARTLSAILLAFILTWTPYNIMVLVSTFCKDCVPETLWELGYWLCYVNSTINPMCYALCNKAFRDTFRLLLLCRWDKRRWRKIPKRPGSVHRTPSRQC
Data set [7] concerns the target Neprilysin (Homo sapiens) (UniProt P08473). The data set can be described thus: Binding affinity to neutral endopeptidase (unknown origin) at 10 uM by relative to control.
The target of data set [8] is Type-2 angiotensin II receptor (Homo sapiens) (UniProt P50052). Put plainly: Binding affinity to recombinant human AT2 receptor at 10 uM after 240 mins by scintillation counting analysis relative to control.
Type-2 angiotensin II receptor (Homo sapiens), sequence (P50052 whole entry): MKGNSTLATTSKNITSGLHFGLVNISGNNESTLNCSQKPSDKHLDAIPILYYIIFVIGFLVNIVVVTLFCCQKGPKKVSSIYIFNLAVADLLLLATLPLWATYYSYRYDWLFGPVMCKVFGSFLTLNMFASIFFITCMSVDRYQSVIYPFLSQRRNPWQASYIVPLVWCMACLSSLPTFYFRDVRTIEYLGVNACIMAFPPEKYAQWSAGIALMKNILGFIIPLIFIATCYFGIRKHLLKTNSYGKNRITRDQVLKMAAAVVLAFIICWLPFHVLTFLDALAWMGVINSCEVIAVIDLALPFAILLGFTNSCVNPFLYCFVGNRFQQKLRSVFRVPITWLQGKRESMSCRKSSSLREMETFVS
In data set [9] the test system is CHO-K1. Put plainly: Genotoxicity in CHOK1 cells in presence of rat liver S9 fraction by fluorescence imaging based micronucleus assay. It is filed as toxicity, cell-based, Cricetulus griseus. Particulars: chinese hamster.
Data set [10] concerns the target D(3) dopamine receptor (Homo sapiens) (UniProt P35462). The data set can be described thus: Binding affinity to recombinant human dopamine receptor D3 at 10 uM after 60 mins by scintillation counting analysis relative to control.
Data set [11] addresses Neuropeptide Y receptor type 1 (Homo sapiens) (UniProt P25929). The data set can be described thus: Binding affinity to human Y1 receptor at 10 uM after 120 mins by scintillation counting analysis relative to control.
Data set [12] has as its target D(1B) dopamine receptor (Homo sapiens) (UniProt P21918). The data set can be described thus: Binding affinity to recombinant human dopamine receptor D5 at 10 uM after 60 mins by scintillation counting analysis relative to control.
The target of data set [13] is Prostaglandin E2 receptor EP4 subtype (Homo sapiens) (UniProt P35408). Put plainly: Binding affinity to recombinant human EP4 receptor at 10 uM after 120 mins by scintillation counting analysis relative to control.
Prostaglandin E2 receptor EP4 subtype (Homo sapiens), sequence (P35408 whole entry): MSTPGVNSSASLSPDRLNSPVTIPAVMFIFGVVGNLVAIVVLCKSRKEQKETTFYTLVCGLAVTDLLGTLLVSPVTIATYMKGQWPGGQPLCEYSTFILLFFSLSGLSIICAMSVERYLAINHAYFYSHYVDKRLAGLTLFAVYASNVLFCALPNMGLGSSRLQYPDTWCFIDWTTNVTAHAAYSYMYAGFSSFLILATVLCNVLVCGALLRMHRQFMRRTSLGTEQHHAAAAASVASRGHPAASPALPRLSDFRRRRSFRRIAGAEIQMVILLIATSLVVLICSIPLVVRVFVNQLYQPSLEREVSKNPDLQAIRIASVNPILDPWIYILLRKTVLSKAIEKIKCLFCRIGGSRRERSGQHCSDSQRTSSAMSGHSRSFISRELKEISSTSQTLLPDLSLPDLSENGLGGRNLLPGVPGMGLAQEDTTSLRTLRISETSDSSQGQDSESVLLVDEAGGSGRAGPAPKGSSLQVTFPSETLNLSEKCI
In data set [14] the target is Platelet-derived growth factor receptor (Mus musculus) (UniProt P05622+P26618). The data set can be described thus: Binding affinity to mouse PDGFR at 10 uM after 180 mins by scintillation counting analysis relative to control. It is filed as protein-complex assay.
Data set [15] has as its target 5-hydroxytryptamine receptor 2A (Homo sapiens) (UniProt P28223). The data set can be described thus: Binding affinity to recombinant human 5-HT2A receptor at 10 uM after 60 mins by scintillation counting analysis relative to control.
The next data set is filed under the species Homo sapiens. The data set can be described thus: Binding affinity to central-type benzodiazepine receptor (unknown origin) at 10 uM relative to control.
Data set [16] concerns the target Substance-K receptor (Homo sapiens) (UniProt P21452). The data set can be described thus: Binding affinity to recombinant human NK2 receptor at 10 uM after 60 mins by scintillation counting analysis relative to control.
For data set [17], the target named is Beta-1 adrenergic receptor (Homo sapiens) (UniProt P08588). The data set can be described thus: Binding affinity to recombinant human beta1 receptor at 10 uM after 60 mins by scintillation counting analysis relative to control.
The target in data set [18] is Melanocortin receptor 4 (Homo sapiens) (UniProt P32245). Put plainly: Binding affinity to recombinant human MC4 receptor at 10 uM after 120 mins by scintillation counting analysis relative to control.
Melanocortin receptor 4 (Homo sapiens), sequence (P32245 whole entry): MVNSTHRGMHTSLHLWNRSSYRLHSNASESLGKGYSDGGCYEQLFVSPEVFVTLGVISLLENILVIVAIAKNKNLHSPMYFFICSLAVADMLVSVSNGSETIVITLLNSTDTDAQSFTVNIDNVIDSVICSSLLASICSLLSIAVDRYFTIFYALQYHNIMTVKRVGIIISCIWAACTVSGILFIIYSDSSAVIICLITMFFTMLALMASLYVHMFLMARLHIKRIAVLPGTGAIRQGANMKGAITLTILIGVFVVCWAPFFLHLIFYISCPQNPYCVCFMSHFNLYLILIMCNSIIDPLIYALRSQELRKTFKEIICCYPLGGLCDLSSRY

A value given as a limit tells only on which side of the number the result lay.

Neprilysin (Homo sapiens), sequence (P08473 whole entry): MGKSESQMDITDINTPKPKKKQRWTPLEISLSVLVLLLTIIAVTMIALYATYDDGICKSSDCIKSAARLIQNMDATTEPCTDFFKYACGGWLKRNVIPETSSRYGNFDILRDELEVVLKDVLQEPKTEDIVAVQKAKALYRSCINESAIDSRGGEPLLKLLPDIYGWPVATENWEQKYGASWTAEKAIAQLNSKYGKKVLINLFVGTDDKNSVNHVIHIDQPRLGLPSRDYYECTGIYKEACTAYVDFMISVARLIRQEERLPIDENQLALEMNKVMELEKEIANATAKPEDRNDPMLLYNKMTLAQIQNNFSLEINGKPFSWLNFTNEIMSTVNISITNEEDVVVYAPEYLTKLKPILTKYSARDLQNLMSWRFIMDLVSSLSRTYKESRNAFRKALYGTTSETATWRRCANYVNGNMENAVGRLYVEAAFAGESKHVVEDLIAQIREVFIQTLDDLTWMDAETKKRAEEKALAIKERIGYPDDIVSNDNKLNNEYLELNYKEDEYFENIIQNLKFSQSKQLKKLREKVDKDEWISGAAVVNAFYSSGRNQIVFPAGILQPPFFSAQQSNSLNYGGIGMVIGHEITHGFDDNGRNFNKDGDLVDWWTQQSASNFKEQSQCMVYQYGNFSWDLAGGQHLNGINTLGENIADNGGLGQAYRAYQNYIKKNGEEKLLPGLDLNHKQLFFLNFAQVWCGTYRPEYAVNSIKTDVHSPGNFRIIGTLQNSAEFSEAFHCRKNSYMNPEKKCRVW
Glucocorticoid receptor (Homo sapiens), sequence (P04150 whole entry): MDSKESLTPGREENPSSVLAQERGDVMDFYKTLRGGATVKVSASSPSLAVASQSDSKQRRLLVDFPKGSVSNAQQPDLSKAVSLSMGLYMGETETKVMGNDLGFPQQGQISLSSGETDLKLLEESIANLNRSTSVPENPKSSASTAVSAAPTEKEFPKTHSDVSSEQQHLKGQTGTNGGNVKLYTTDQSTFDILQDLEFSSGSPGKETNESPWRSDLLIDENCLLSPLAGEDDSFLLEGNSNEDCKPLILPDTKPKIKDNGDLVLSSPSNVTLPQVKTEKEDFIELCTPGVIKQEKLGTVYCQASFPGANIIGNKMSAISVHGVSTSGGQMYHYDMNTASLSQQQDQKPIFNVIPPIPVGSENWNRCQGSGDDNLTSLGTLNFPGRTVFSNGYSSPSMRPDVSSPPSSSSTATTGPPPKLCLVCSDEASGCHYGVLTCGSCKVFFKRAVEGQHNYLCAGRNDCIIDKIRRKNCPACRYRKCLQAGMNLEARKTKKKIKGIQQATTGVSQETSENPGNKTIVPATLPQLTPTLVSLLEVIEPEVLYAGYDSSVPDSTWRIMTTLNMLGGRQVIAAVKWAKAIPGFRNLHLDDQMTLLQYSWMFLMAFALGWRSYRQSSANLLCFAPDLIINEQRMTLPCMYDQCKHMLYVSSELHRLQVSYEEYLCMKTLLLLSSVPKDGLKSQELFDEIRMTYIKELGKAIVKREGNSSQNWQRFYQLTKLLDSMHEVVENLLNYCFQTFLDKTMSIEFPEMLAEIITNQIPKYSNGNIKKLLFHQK
5-hydroxytryptamine receptor 2A (Homo sapiens), sequence (P28223 whole entry): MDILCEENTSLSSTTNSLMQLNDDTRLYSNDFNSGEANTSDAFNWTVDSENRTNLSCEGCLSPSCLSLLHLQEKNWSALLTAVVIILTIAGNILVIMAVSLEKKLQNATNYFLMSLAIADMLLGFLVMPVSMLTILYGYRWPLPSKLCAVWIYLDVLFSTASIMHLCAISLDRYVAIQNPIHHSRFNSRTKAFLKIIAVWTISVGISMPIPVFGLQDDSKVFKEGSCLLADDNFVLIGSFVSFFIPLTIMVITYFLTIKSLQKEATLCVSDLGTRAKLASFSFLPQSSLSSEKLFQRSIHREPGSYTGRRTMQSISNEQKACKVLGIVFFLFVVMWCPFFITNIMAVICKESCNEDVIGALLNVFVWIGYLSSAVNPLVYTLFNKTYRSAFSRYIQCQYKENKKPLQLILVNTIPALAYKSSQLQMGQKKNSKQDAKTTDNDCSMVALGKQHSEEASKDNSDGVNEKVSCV
Neuropeptide Y receptor type 1 (Homo sapiens), sequence (P25929 whole entry): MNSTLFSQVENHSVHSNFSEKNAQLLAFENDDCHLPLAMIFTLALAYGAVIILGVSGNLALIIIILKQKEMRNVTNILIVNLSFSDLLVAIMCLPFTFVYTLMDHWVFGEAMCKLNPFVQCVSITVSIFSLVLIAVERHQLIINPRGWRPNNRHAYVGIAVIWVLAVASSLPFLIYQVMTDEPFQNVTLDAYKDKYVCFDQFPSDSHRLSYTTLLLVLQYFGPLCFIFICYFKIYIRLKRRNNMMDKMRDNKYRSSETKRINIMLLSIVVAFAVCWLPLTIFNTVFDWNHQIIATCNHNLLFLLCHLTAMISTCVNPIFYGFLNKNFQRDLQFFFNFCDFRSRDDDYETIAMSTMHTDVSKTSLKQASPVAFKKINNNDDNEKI
D(1B) dopamine receptor (Homo sapiens), sequence (P21918 whole entry): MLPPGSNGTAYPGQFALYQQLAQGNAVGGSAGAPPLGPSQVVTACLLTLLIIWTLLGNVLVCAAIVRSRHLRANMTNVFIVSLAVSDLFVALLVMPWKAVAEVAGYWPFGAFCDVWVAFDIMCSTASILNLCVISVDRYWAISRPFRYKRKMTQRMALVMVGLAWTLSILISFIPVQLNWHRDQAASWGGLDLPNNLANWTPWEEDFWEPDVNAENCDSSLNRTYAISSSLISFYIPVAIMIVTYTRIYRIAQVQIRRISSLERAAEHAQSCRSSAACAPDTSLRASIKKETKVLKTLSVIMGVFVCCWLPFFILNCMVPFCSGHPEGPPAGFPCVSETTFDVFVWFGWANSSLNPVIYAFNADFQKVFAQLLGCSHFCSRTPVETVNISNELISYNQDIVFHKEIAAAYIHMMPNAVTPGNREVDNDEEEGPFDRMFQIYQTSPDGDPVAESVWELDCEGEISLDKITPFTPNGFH
D(3) dopamine receptor (Homo sapiens), sequence (P35462 whole entry): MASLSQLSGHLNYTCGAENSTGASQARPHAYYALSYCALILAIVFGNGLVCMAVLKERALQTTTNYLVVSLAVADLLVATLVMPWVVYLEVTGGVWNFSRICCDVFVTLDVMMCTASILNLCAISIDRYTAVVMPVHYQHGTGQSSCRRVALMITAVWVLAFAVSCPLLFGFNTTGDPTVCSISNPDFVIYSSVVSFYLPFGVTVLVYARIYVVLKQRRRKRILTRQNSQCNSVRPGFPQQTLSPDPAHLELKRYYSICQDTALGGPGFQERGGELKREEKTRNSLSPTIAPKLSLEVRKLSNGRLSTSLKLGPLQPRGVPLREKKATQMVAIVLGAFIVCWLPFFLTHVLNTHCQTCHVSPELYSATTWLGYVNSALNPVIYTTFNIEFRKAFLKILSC

On to `CCOc1c(Cl)cc(C(=O)Nc2ccc(C(=O)O)c(C)c2)cc1OC(C)C`, for which the Activity in data set [1] was less than 25%; in data set [2] it was less than 25%; in data set [3], less than 25%; in the data set with CHO-K1 [4], “Non-Toxic”; in data set [5], less than 25%; in [6] it was less than 25%. In addition, the Activity in data set [7] was less than 25%; in [8] it was less than 25%; with CHO-K1 [9], “Non-Toxic”; in data set [10], less than 25%; in data set [11] it was less than 25%; in data set [12], less than 25%. Also, the Activity (in [13]; in data set [14]; in data set [15]; in the data set filed under Homo sapiens; in data set [16]; in data set [17]) was less than 25% in each case. In addition, in data set [18], the Activity was less than 25%.
